These results are taken from patent EP0217101A1, “Substituted diphenyl ethers, process for their preparation and their use as herbicides” (HOECHST AKTIENGESELLSCHAFT, priority 1985, dated 1987).

What all share (type): in vivo
For test [1], the system named is Avena sativa. In words: Weed control post-emergence (greenhouse pot test). The note with it: post-emergence (three-leaf stage), 2,5 kg a.i./ha, visual rating after ca. 3-4 weeks. From the text: (§1) Die Schädigung der Unkrautpflanzen bzw. die Kulturpflanzenverträglichkeit wurde gemäß einem Schlüssel bonitiert, in dem die Wirksamkeit durch Wertzahlen von 0 - 5 ausgedrückt ist. Dabei bedeutet:
(§2) Samen bzw. Rhizomstüeke von mono- und dikotylen Unkräutern wurden in Plasstiktöpfen (φ= 9 cm) in sandigem Lehmboden ausgelegt, mit Erde abgedeckt und im Gewächshaus unter guten Wachstumsbedingungen angezogen. Drei Wochen nach der Aussaat wurden die Versuchspflanzen im Dreiblattstadium behandelt. Die als Spritzpulver bzw. als Eτulsionskonzentrate formulierten erfindungsgemäßen Verbindungen wurden in verschiedenen Dosierungen mit einer Wasseraufwandmenge von umgerechnet 600-800 l/ha auf die grünen Pflanzenteile gesprüht und nach ca. 3-4 Wochen Standzeit der Versuchspflanzen im Gewächshaus unter optimalen Wachstumsbedingungen (Temperatur 23°C +/- 1°C, relative Luftfeuchte 60-80 %) die Wirkung der Präparate optisch im Vergleich zu unbehandelten Kontrollen bonitiert.

Test [2] relates to Chrysanthemum segetum. Kind of test: Weed control post-emergence (greenhouse pot test). The conditions noted are these: post-emergence (three-leaf stage), 2,5 kg a.i./ha, visual rating after ca. 3-4 weeks.
Text: as §1, §2

For test [3], the system named is Sinapis arvensis. In words: Weed control post-emergence (greenhouse pot test). The conditions noted are these: post-emergence (three-leaf stage), 2,5 kg a.i./ha, visual rating after ca. 3-4 weeks.
Text: as §1, §2

In test [4] the test system is Echinochloa crus-galli. Kind of test: Weed control pre-emergence (greenhouse pot test). The note with it: pre-emergence, 2,5 kg a.i./ha, visual rating after 3-4 weeks.
Text: as §1
(§3) Samen bzw. Rhizomstücke von mono- und dikotylen Unkrautpflanzen wurden in Plasstiktöpfen (0 = 9 cm) in sandiger Lehmerde ausgelegt und mit Erde abgedeckt. Die in Form von benetzbaren Pulvern oder Emulsionskonzentraten formulierten erfindungsgemäßen Verbindungen wurden dann als wäßrige Suspensionen bzw. Emulsionen mit einer Wasseraufwandmenge von umgerechnet 600-800 1/ha in unterschiedlichen Dosierungen auf die Oberfläche der Abdeckerde appliziert. Nach der Behandlung wurden die Töpfe im Gewächshaus aufgestellt und unter guten Wachstumsbedingungen für die Unkrautpflanzen gehalten (Temperatur 23 plus/minus 1 Grad Celsius, relative Luftfeuchte 60-80 %).
(§4) Die optische Bonitur der Pflanzen- bzw. Auflaufschäden erfolgte nach dem Auflaufen der Versuchspflanzen nach einer Versuchszeit von 3-4 Wochen im Vergleich zu unbehandelten Kontrollen.

For test [5], the system named is Stellaria media. Kind of test: Weed control pre-emergence (greenhouse pot test). The note with it: pre-emergence, 2,5 kg a.i./ha, visual rating after 3-4 weeks.
Text: as §1, §3, §4

The subject of test [6] is Echinochloa crus-galli. Kind of test: Weed control post-emergence (greenhouse pot test). The note with it: post-emergence (three-leaf stage), 2,5 kg a.i./ha, visual rating after ca. 3-4 weeks. Further details: key: 0: = ohne Wirkung bzw. Schaden; 1: = 0 - 20 % Wirkung bzw. Schaden; = 20 - 40 % Wirkung bzw. Schaden; 3: = 40 - 60 % Wirkung bzw. Schaden; 4: = 60 - 80 % Wirkung bzw. Schaden; 5: = 80 - 100 % Wirkung bzw. Schaden.
Text: as §1, §2

Test [7] has as its system Stellaria media. Kind of test: Weed control post-emergence (greenhouse pot test). Also noted: key: 0: = ohne Wirkung bzw. Schaden; 1: = 0 - 20 % Wirkung bzw. Schaden; = 20 - 40 % Wirkung bzw. Schaden; 3: = 40 - 60 % Wirkung bzw. Schaden; 4: = 60 - 80 % Wirkung bzw. Schaden; 5: = 80 - 100 % Wirkung bzw. Schaden. The note with it: post-emergence (three-leaf stage), 2,5 kg a.i./ha, visual rating after ca. 3-4 weeks.
Text: as §1, §2

For test [8], the system named is Avena sativa. Kind of test: Weed control pre-emergence (greenhouse pot test). The conditions noted are these: pre-emergence, 2,5 kg a.i./ha, visual rating after 3-4 weeks.
Text: as §1, §3, §4

In test [9] the test system is Chrysanthemum segetum. In words: Weed control pre-emergence (greenhouse pot test). The conditions noted are these: pre-emergence, 2,5 kg a.i./ha, visual rating after 3-4 weeks.
Text: as §1, §3, §4

Test [10] relates to Sinapis arvensis. Kind of test: Weed control pre-emergence (greenhouse pot test). The conditions noted are these: pre-emergence, 2,5 kg a.i./ha, visual rating after 3-4 weeks.
Text: as §1, §3, §4

Take `O=C(OC(OCC(F)(F)C(F)F)C(Cl)(Cl)Cl)c1cc(Oc2ccc(C(F)(F)F)cc2Cl)ccc1[N+](=O)[O-]` (stereo not drawn) [compound 7]: the “Herbizide Wirkung im Nachauflauf AS” value in the test with Avena sativa [1] is given as 2 (= 20 - 40 % Wirkung bzw. Schaden). Besides, the “Herbizide Wirkung im Nachauflauf CRS” value in the test with Chrysanthemum segetum [2] is given as 5 (= 80 - 100 % Wirkung bzw. Schaden). Further, the “Herbizide Wirkung im Nachauflauf SIA” value with Sinapis arvensis [3] was 5 (= 80 - 100 % Wirkung bzw. Schaden). In addition, in the test with Echinochloa crus-galli [4], the “Herbizide Wirkung im Vorauflauf ECG” value was 5 (= 80 - 100 % Wirkung bzw. Schaden). For the same molecule, the “Herbizide Wirkung im Vorauflauf STM” value in the test on Stellaria media [5] is given as 2 (= 20 - 40 % Wirkung bzw. Schaden). In addition, the “Herbizide Wirkung im Nachauflauf ECG” value in the test on Echinochloa crus-galli [6] is listed as 3 (= 40 - 60 % Wirkung bzw. Schaden). For the same molecule, the “Herbizide Wirkung im Nachauflauf STM” value in the test with Stellaria media [7] was 5 (= 80 - 100 % Wirkung bzw. Schaden). Also, the “Herbizide Wirkung im Vorauflauf AS” value with Avena sativa [8] is 3 (= 40 - 60 % Wirkung bzw. Schaden). Moreover, the “Herbizide Wirkung im Vorauflauf CRS” value in the test on Chrysanthemum segetum [9] is reported as 5 (= 80 - 100 % Wirkung bzw. Schaden). Also, in the test on Sinapis arvensis [10], the “Herbizide Wirkung im Vorauflauf SIA” value is on record as 3 (= 40 - 60 % Wirkung bzw. Schaden).

Take `CP(C)(=O)COC(OC(=O)c1cc(Oc2ccc(C(F)(F)F)cc2Cl)ccc1[N+](=O)[O-])C(Cl)(Cl)Cl` (stereo not drawn) [compound 46]: in the test with Avena sativa [1], the “Herbizide Wirkung im Nachauflauf AS” value is reported as 2 (= 20 - 40 % Wirkung bzw. Schaden). The “Herbizide Wirkung im Nachauflauf CRS” value in the test on Chrysanthemum segetum [2] is 5 (= 80 - 100 % Wirkung bzw. Schaden). For the same molecule, the “Herbizide Wirkung im Nachauflauf SIA” value in the test with Sinapis arvensis [3] is recorded as 5 (= 80 - 100 % Wirkung bzw. Schaden). Also, in the test on Echinochloa crus-galli [4], the “Herbizide Wirkung im Vorauflauf ECG” value is recorded as 5 (= 80 - 100 % Wirkung bzw. Schaden). In the test with Stellaria media [5], the “Herbizide Wirkung im Vorauflauf STM” value was 1 (= 0 - 20 % Wirkung bzw. Schaden). In addition, the “Herbizide Wirkung im Nachauflauf ECG” value with Echinochloa crus-galli [6] is 2 (= 20 - 40 % Wirkung bzw. Schaden). In addition, the “Herbizide Wirkung im Nachauflauf STM” value in the test on Stellaria media [7] was 2 (= 20 - 40 % Wirkung bzw. Schaden). In the test on Avena sativa [8], the “Herbizide Wirkung im Vorauflauf AS” value was 4 (= 60 - 80 % Wirkung bzw. Schaden). Moreover, the “Herbizide Wirkung im Vorauflauf CRS” value in the test on Chrysanthemum segetum [9] is on record as 5 (= 80 - 100 % Wirkung bzw. Schaden). For the same molecule, the “Herbizide Wirkung im Vorauflauf SIA” value in the test on Sinapis arvensis [10] is recorded as 5 (= 80 - 100 % Wirkung bzw. Schaden).

As to `Cc1ncsc1COC(OC(=O)c1cc(Oc2ccc(C(F)(F)F)cc2Cl)ccc1[N+](=O)[O-])C(Cl)(Cl)Cl` (stereo not drawn) [compound 37], in the test with Avena sativa [1], the “Herbizide Wirkung im Nachauflauf AS” value was 2 (= 20 - 40 % Wirkung bzw. Schaden). Also, in the test on Chrysanthemum segetum [2], the “Herbizide Wirkung im Nachauflauf CRS” value is given as 4 (= 60 - 80 % Wirkung bzw. Schaden). For the same molecule, the “Herbizide Wirkung im Nachauflauf SIA” value in the test on Sinapis arvensis [3] is 5 (= 80 - 100 % Wirkung bzw. Schaden). For the same molecule, in the test with Echinochloa crus-galli [4], the “Herbizide Wirkung im Vorauflauf ECG” value is given as 2 (= 20 - 40 % Wirkung bzw. Schaden). For the same molecule, the “Herbizide Wirkung im Vorauflauf STM” value in the test on Stellaria media [5] is 1 (= 0 - 20 % Wirkung bzw. Schaden). For the same molecule, in the test on Echinochloa crus-galli [6], the “Herbizide Wirkung im Nachauflauf ECG” value is 2 (= 20 - 40 % Wirkung bzw. Schaden). In addition, the “Herbizide Wirkung im Nachauflauf STM” value in the test with Stellaria media [7] was 0. For the same molecule, the “Herbizide Wirkung im Vorauflauf AS” value in the test with Avena sativa [8] is listed as 2 (= 20 - 40 % Wirkung bzw. Schaden). In addition, the “Herbizide Wirkung im Vorauflauf CRS” value in the test on Chrysanthemum segetum [9] is recorded as 3 (= 40 - 60 % Wirkung bzw. Schaden). Also, the “Herbizide Wirkung im Vorauflauf SIA” value with Sinapis arvensis [10] is listed as 4 (= 60 - 80 % Wirkung bzw. Schaden).
